The results in this text go back to ChEMBL document CHEMBL4706524, “Discovery of sulfonyl hydrazone derivative as a new selective PDE4A and PDE4D inhibitor by lead-optimization approach on the prototype LASSBio-448: In vitro and in vivo preclinical studies” (Eur J Med Chem, 2020).

pEC50, pIC50: −log10 of the molar value.

The target in series [1] is T1, 3',5'-cyclic-AMP phosphodiesterase 4B (Homo sapiens, UniProt Q07343). As to the kind of experiment: Inhibition of human recombinant PDE4B1 using FAM-cAMP as substrate at 10 uM measured after 1 hr by IMAP TR-FRET assay. For orientation: TR-FRET usually uses a lanthanide donor and a delayed reading to cut background.
A short description of series [2]: in vitro. Particulars: PAMPA. In general terms: The PAMPA barrier holds no transporters, so it reflects passive diffusion.
Series [3] deals with Mus musculus. Kind of series: Antiinflammatory activity against A/J mouse assessed as decrease in LPS-induced airway hyperreactivity at 3 umol/kg, po treated via gavage for 1 hr before LPS stimulation measured after 24 hrs by whole body plethysmography relative to control. It is filed as functional. Particulars: 25 h.
Series [4] has as its target T2, 3',5'-cyclic-AMP phosphodiesterase 4D (Homo sapiens, UniProt Q08499). As to the kind of experiment: Inhibition of human recombinant PDE4D3 using FAM-cAMP as substrate at 10 uM measured after 1 hr by IMAP TR-FRET assay.
Series [5] deals with T3, 3',5'-cyclic-AMP phosphodiesterase 4C (Homo sapiens, UniProt Q08493). Kind of series: Inhibition of human recombinant PDE4C using FAM-cAMP as substrate at 10 uM measured after 1 hr by IMAP TR-FRET assay.
For series [6], the species on record is Homo sapiens. Kind of series: Inhibition of human recombinant PDE4A1A using FAM-cAMP as substrate measured after 1 hr by IMAP TR-FRET assay relative to control.
For series [7] the following is noted: pampa, 8 h.
Series [8] is described as follows: Inhibition of human recombinant PDE4A1A using FAM-cAMP as substrate measured after 1 hr by IMAP TR-FRET assay.
For series [9], the species on record is Homo sapiens. As to the kind of experiment: Inhibition of human recombinant PDE4A1A using FAM-cAMP as substrate at 10 uM measured after 1 hr by IMAP TR-FRET assay.
Series [10] has as its system Mus musculus. Kind of series: Antiinflammatory activity against A/J mouse assessed as decrease in LPS-induced TNFalpha production in lungs at 3 umol/kg, po treated via gavage for 1 hr before LPS stimulation and measured after 24 hrs by ELISA relative to control. Particulars: 25 h. It is filed as functional. (An ELISA detects its analyte on a solid surface through an enzyme-linked reagent.)

The target of series [11] is T2, 3',5'-cyclic-AMP phosphodiesterase 4D. As to the kind of experiment: Inhibition of human recombinant PDE4D3 using FAM-cAMP as substrate measured after 1 hr by IMAP TR-FRET assay relative to control.
The nature of series [12]: in vitro. Particulars: PAMPA. This is another data set of the same source.
Description: Permeability of the compound by PAMPA-TGI assay
The target of series [13] is 3',5'-cyclic-AMP phosphodiesterase 4A (Homo sapiens, UniProt P27815). Kind of series: Inhibition of PDE4A (unknown origin).
Series [14] concerns the target T2, 3',5'-cyclic-AMP phosphodiesterase 4D.
Description: Inhibition of PDE4D (unknown origin)
The target in series [15] is T1, 3',5'-cyclic-AMP phosphodiesterase 4B. Kind of series: Inhibition of PDE4B (unknown origin).
The target of series [16] is T3, 3',5'-cyclic-AMP phosphodiesterase 4C.
Description: Inhibition of PDE4C (unknown origin)
Series [17] relates to Trachea. As to the kind of experiment: […] activity in non-sensitized guinea pig-derived trachea assessed as decrease in CCh-induced tracheal tonic contraction in absence of functional epithelium treated with compound after contraction stabilised. Particulars: Cavia porcellus. The class given is tissue-based.
A short description of series [18]: in vitro. Particulars: PAMPA. The source holds these as a separate data set.
Description: Permeability of the compound incubated for 165 mins by PAMPA-BBB assay
Series [19] can be described thus: Chemical stability of the compound in KCl/HCl buffer at pH 2.0 measured upto 120 mins by HPLC-DAD analysis. Particulars: pH 2, 2 h.
The test system of series [20] is Trachea. Kind of series: […] activity in OVA-sensitized guinea pig-derived trachea assessed as decrease in CCh-induced tracheal tonic contraction in absence of functional epithelium treated with compound after contraction stabilised. The class given is tissue-based. Particulars: Cavia porcellus.
The test system of series [21] is Trachea. Kind of series: […] activity in non-sensitized guinea pig-derived trachea assessed as decrease in CCh-induced tracheal tonic contraction in presence of functional epithelium. The class given is tissue-based. Particulars: Cavia porcellus.
Series [22] concerns Trachea. As to the kind of experiment: […] activity in OVA-sensitized guinea pig-derived trachea assessed as decrease in CCh-induced tracheal tonic contraction in presence of functional epithelium treated with compound after contraction stabilised. The class given is tissue-based. Particulars: Cavia porcellus.
Series [23] can be described thus: Chemical stability of the compound in phosphate buffer at pH 7.4 measured upto 120 mins by HPLC-DAD analysis. It is filed as physicochemical. Particulars: pH 7.4, 2 h.
The test system of series [24] is Mus musculus. Kind of series: Antiinflammatory activity against A/J mouse assessed as decrease in LPS-induced airway hyperreactivity at 6.25 umol/kg, po treated via gavage for 1 hr before LPS stimulation measured after 24 hrs by whole body plethysmography relative to control. The class given is functional. Particulars: 25 h.
In series [25] the test system is Mus musculus. As to the kind of experiment: Antiinflammatory activity against A/J mouse assessed as decrease in LPS-induced TNFalpha production in lungs at 6.25 umol/kg, po treated via gavage for 1 hr before LPS stimulation and measured after 24 hrs by ELISA relative to control. The class given is functional. Particulars: 25 h.
Series [26] concerns the target T2, 3',5'-cyclic-AMP phosphodiesterase 4D. As to the kind of experiment: Inhibition of human recombinant PDE4D3 using FAM-cAMP as substrate measured after 1 hr by IMAP TR-FRET assay.
Series [27] has as its system Mus musculus. As to the kind of experiment: Antiinflammatory activity against A/J mouse assessed as decrease in LPS-induced TNFalpha production in lungs at 25 umol/kg, po treated via gavage for 1 hr before LPS stimulation and measured after 24 hrs by ELISA relative to control. The class given is functional. Particulars: 25 h.
For series [28], the system named is Mus musculus. Kind of series: Antiinflammatory activity against A/J mouse assessed as decrease in LPS-induced airway hyperreactivity at 25 umol/kg, po treated via gavage for 1 hr before LPS stimulation measured after 24 hrs by whole body plethysmography relative to control. The class given is functional. Particulars: 25 h.

T2 sequence (Q08499 whole entry): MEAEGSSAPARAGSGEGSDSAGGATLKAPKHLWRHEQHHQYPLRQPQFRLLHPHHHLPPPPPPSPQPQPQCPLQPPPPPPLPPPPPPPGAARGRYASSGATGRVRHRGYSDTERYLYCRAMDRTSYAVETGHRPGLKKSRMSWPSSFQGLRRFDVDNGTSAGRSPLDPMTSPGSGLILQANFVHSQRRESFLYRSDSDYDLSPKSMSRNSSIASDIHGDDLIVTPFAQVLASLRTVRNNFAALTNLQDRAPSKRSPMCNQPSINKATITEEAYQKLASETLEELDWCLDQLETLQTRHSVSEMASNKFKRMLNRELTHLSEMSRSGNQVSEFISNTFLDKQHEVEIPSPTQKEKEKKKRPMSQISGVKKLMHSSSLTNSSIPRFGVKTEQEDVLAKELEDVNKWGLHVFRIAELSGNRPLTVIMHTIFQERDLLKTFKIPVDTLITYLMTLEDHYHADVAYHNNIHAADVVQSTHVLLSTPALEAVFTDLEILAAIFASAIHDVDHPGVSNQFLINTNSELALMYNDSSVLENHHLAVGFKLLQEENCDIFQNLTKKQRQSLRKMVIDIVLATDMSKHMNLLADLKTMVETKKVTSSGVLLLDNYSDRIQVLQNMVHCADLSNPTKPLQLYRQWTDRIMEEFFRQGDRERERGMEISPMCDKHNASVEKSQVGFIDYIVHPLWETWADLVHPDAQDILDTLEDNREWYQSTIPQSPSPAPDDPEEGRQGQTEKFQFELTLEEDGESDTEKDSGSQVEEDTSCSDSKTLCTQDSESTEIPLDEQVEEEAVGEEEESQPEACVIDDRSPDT
T3 sequence (Q08493 whole entry): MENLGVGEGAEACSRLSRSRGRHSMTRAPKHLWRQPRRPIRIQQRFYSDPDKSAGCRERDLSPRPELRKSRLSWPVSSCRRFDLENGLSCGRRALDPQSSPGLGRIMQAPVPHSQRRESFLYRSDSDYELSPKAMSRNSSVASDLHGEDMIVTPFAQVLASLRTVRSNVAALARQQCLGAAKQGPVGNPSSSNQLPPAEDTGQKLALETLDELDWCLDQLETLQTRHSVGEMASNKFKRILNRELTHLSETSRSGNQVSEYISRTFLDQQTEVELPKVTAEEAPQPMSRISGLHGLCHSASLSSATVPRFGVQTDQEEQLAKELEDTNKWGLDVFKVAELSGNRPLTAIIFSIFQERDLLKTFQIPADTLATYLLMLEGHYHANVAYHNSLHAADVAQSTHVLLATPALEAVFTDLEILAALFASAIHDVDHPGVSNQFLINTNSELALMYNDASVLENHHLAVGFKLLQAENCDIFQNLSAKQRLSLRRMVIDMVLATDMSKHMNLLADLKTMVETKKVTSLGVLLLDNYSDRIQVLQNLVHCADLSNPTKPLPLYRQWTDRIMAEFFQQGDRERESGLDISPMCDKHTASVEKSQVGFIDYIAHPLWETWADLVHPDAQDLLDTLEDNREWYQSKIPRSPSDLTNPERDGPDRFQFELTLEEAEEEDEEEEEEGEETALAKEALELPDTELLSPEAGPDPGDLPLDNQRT
T1 sequence (Q07343 whole entry, the tested form may be a part): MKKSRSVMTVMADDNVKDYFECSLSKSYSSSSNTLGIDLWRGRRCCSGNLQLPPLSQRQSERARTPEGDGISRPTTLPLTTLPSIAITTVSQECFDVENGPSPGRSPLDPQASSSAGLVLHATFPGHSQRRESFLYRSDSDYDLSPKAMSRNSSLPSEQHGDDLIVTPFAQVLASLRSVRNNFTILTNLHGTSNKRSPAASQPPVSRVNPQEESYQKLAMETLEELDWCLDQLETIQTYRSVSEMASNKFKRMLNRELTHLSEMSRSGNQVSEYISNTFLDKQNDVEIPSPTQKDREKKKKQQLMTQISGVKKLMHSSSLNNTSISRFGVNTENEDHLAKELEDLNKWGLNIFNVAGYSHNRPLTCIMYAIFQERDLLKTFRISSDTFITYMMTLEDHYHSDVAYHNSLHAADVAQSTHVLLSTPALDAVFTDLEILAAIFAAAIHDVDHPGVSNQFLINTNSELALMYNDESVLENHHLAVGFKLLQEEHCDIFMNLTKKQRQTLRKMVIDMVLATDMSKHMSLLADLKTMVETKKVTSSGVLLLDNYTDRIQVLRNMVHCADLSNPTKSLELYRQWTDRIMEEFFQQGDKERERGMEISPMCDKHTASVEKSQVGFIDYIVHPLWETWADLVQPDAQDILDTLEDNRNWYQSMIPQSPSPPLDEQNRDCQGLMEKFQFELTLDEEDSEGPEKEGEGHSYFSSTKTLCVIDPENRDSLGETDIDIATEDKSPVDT
3',5'-cyclic-AMP phosphodiesterase 4A, sequence (P27815 whole entry): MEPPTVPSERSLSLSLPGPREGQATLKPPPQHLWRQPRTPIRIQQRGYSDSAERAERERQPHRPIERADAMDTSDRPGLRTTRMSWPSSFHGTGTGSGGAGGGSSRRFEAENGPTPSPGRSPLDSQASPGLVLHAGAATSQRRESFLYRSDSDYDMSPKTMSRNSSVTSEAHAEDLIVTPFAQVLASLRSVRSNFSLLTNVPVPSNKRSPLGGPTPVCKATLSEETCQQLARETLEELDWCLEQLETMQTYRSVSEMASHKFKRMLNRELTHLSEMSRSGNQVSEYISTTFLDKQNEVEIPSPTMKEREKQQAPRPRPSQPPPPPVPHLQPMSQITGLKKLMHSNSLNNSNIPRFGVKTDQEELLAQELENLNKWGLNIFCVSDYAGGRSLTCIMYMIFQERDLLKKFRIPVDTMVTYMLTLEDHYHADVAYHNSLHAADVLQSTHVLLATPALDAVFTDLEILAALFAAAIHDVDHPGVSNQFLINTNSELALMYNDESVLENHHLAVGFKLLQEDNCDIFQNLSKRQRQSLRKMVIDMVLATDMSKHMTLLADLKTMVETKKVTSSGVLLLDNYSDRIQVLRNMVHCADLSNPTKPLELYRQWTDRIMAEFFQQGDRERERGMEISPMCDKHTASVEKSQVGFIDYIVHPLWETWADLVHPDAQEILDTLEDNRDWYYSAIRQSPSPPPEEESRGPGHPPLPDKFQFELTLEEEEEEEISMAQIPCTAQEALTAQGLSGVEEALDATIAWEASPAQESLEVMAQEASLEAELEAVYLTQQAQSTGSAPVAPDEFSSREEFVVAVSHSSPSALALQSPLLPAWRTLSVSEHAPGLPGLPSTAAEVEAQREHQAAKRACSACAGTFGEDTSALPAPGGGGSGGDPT

Turning to `COc1ccc([C@]2(C#N)CC[C@@H](C(=O)O)CC2)cc1OC1CCCC1` [CILOMILAST], the inhibition was 91.3% in series [1], 98.8% in [4], 98.5% in [5] and 91.3% in series [9]. This molecule showed an apparent permeability coefficient (Papp) at 8 h in series [2] of 7.29 ×10⁻⁶ cm/s. In addition, the figures for the inhibition in vivo at 3 µmol/kg in series [3] and in series [10] were 94% and 98.9%, respectively. Further, the Emax in [6] and in [11] was 99% throughout. The Drug absorption in series [7] is on record as 93.74%. Moreover, in series [8], the pIC50 was 6.70.
In series [2], `CC(=O)N1CCN(c2ccc(OCC3COC(Cn4ccnc4)(c4ccc(Cl)cc4Cl)O3)cc2)CC1` (stereo not drawn) [KETOCONAZOLE] displayed a Papp at 8 h of 4.93 ×10⁻⁶ cm/s. In series [7], the Drug absorption was 84.68%. In addition, in [12], the Papp amounted to 3.3 ×10⁻⁶ cm/s.
The matching figures for `CC(=O)Oc1ccccc1C(=O)O` [ASPIRIN]: 1.69 ×10⁻⁶ cm/s, 47.36% and 3.8 ×10⁻⁶ cm/s.
Regarding `C[C@@H](Oc1ccc(CNC(=O)c2cccnc2Oc2ccc3c(c2)OCO3)c(F)c1)C(=O)O`, the pIC50 in series [13] is 6.51; in series [14] it was 8.52; in series [15] it was 6.54; in series [16] it was 5.41.
Regarding `COc1ccc(CCNS(=O)(=O)c2cc3c(cc2C)OCO3)cc1OC`, the inhibition in series [1] is less than 5%; in [4], less than 5%; in [5], 21.3%; in series [9], 11.8%. Also, the pEC50 was 4.36 in series [17], 4.60 in series [20], 4.53 in series [21] and 4.61 in series [22]. In [18], this molecule gave a Papp at 2.75 h of 3.46 ×10⁻⁶ cm/s. In addition, the Stabilty result in series [19] and in [23] was “Stable” in each case. Also, in series [8], the pIC50 is 6.15.
In turn, `O=C(O)c1cc(/N=N/c2ccc(S(=O)(=O)Nc3ccccn3)cc2)ccc1O` [SULFASALAZINE] displayed a Papp at 8 h in series [2] of 0.45 ×10⁻⁶ cm/s. Also, in [12], the Papp came out at 0.3 ×10⁻⁶ cm/s.
Take `COc1ccc(/C=N/N(C)S(=O)(=O)c2cc3c(cc2C)OCO3)cc1OC`: the inhibition in series [1] stood at 22.7%; in [4], 90.7%; in series [5] it was 25.5%; in [9], 90.4%. In [2], this molecule yielded a Papp at 8 h of 13.1 ×10⁻⁶ cm/s. The pEC50 in series [17] is 5.09; in [20], 5.50; in series [21], 5.08; in series [22], 5.19. The results for the Stabilty entry in [19] and in [23] were “Unstable” and “Stable”, respectively. In addition, the values for the Emax in [6] and in [11] were 100% and 93%, respectively. Moreover, the figures for the inhibition in vivo at 6.25 µmol/kg in series [24] and in series [25] were 99% and 48.7%, respectively. In [7], this molecule came in with a Drug absorption of 99.3%. Moreover, the values for the pIC50 in series [8] and in series [26] were 6.30 and 6.15, respectively. The inhibition in vivo at 25 µmol/kg in [27] came out at 85.9%; in series [28], 97%.
On to `O=C(Nc1c(Cl)cncc1Cl)c1ccc(OC(F)F)c(OCC2CC2)c1` [ROFLUMILAST], for which the Papp at 8 h in series [2] was found to be 5.28 ×10⁻⁶ cm/s. For the same molecule, the Papp at 2.75 h in [18] was found to be 8.05 ×10⁻⁶ cm/s. Also, the Drug absorption in series [7] is 86.58%.

In general, inhibition refers to the drop in the measured response relative to a control, in per cent. What is called Papp is the rate of passage across a membrane or cell layer, normalised by area and donor concentration. A high value points to ready permeation. What is called inhibition in vivo is the percentage by which the read-out fell short of the control. One may read the Emax as the greatest response seen or fitted, relative to the assay's reference. By pIC50 is commonly meant −log10 of the IC50, conventionally taken in molar units. The term pEC50 denotes the EC50 on a negative log10 scale, so that one unit is a factor of ten.
